Data set [1] concerns the target Recombinant human c-Met protein (Homo sapiens (Human), UniProt P08581). Put plainly: c-Met receptor tyrosine kinase activity assay (NADH read-out). Conditions: ATP 30 μM, c-Met 30 nM. It counts as biochemical. On the procedure:
c-Met Receptor Tyrosine Kinase Activity Assay (NADH Read-Out):
Recombinant human c-Met protein (Invitrogen, Carlsbad, Calif., USA) is used. As substrate for the kinase reaction the peptide KKKSPGEYVNIEFG (JPT, Germany) is used. For the assay, 1 μL of a 51-fold concentrated solution of the test compound in DMSO is pipetted into a white 384-well microtiter plate (Greiner Bio-One, Frickenhausen, Germany). 25 μL of a solution of c-Met (final concentration 30 nM) and pyruvate kinase/lactate dehydrogenase (Roche Diagnostics, Mannheim, Germany; final concentration 8 mg/L) in assay buffer [3-(N-morpholino)propanesulfonic acid (MOPS), 50 mM, pH 7; MgCl2, 10 mM; bovine serum albumin (BSA), 0.01%; Triton X 100, 0.01%; DTT, 2 mM] are added, and the mixture is incubated for 5 min at room temperature. Then, the kinase reaction is started by the addition of 25 μL of a solution of adenosine triphosphate (ATP, final concentration 30 μM), substrate (final concentration 100 μM), nicotinamide adenine dinucleo-tide (NADH, final concentration 50 μM) and dithiothreitol (DTT, final concentration 2 mM) in assay buffer, and the resulting mixture is incubated for a reaction time of 100 min at 32° C.
Subsequently, the amount of phosphorylated substrate is evaluated by measurement of the decrease of NADH fluorescence. Therefore, the fluorescence emissions at 465 nm after excitation at 340 nm is measured in a fluorescence reader, e.g. Tecan Ultra (Tecan, Männedorf, Switzerland). The data are normalised (enzyme reaction without inhibitor=0% inhibition; all other assay components but no enzyme=100% inhibition).

For data set [2], the target named is recombinant kinase domain of the human c-Met (amino acids 960-1390) (Homo sapiens (Human), UniProt P08581). Briefly: c-Met receptor tyrosine kinase homogeneous time-resolved fluorescence assay (alternative format). The format is biochemical. The settings on record: HTRF format; ATP 10 μM. The text has this: c-Met Receptor Tyrosine Kinase Homogeneous Time-Resolved Fluorescence Assay (Alternative Format):
The N-terminally His6-tagged recombinant kinase domain of the human c-Met (amino acids 960-1390), expressed in insect cells (SF21) and purified by Ni-NTA affinity chromatography and consecutive size exclusion chromatography (Superdex 200), is used. Alternatively, commercially available c-Met (Millipore) can be used. As substrate for the kinase reaction, the biotinylated poly-Glu, Tyr (4:1) copolymer (#61GTOBLC, Cis Biointernational, Marcoule, France) is used.
For the assay, […] of a 100-fold concentrated solution of the test compound in DMSO is pipetted into a black low-volume 384-well microtiter plate (Greiner Bio-One, Frickenhausen, Germany). 2 μL of a solution of c-Met in assay buffer [25 mM Hepes/NaOH, pH 7.5; 5 mM MgCl2; 5 mM MnCl2; 2 mM dithiothreitol; 0.1% (v/v) Tween 20 (Sigma); 0.1% (w/v) bovine serum albumin] are added, and the mixture is incubated for 15 min at 22° C. to allow pre-binding of the test compound to the enzyme before the start of the kinase reaction. Then, the kinase reaction is started by the addition of 3 μL of a solution of adenosine triphosphate (ATP, 16.7 μM; final concentration in the 5 μL assay volume is 10 μM) and substrate (2.27 μg/mL, final concentration in the 5 μL assay volume is 1.36 μg/mL ˜30 nM) in assay buffer, and the resulting mixture is incubated for a reaction time of 30 min at 22° C. The concentration of c-Met in the assay is adjusted depending on the activity of the enzyme lot and is appropriately chosen to have the assay in the linear range; typical enzyme concentrations are in the range of about 0.03 nM (final concentration in the 5 μL assay volume). The reaction is stopped by the addition of 5 μL of a solution of HTRF detection reagents [40 nM streptavidine-X Lent and 2.4 nM PT66-Eu-chelate, an europium-chelate labelled anti-phosphotyrosine antibody (Perkin-Elmer)] in an aqueous EDTA solution [100 mM EDTA, 0.2% (w/v) bovine serum albumin in 50 mM HEPES/NaOH, pH 7.5].
The resulting mixture is incubated for 1 h at 22° C. to allow the binding of the biotinylated phosphorylated peptide to the streptavidine-XLent and the PT66-Eu-chelate. Subsequently, the amount of phosphorylated substrate is evaluated by measurement of the resonance energy transfer from the PT66-Eu-chelate to the streptavidine-XLent. Therefore, the fluorescence emissions at 620 nm and 665 nm after excitation at 350 nm are measured in an HTRF reader, e.g. Rubystar (BMG Lab-technologies, Offenburg, Germany) or Viewlux (Perkin-Elmer). The ratio of the emissions at 665 nm and at […] is taken as the measure for the amount of phosphorylated substrate. The data are normalised (enzyme reaction without inhibitor=0% inhibition; all other assay components but no enzyme=100% inhibition).

A short description of data set [3]: Caco-2 permeability assay. Conditions: human, apical to basolateral, 2 h at 37° C., Table 4, read-out: Caco-2 permeability PappA-B. It counts as in vitro ADME. An excerpt:
Caco-2 Permeability Assay:
The in vitro permeation of a test compound across a Caco-2 cell monolayer is a well-established assay system to predict the permeability from the gastro-intestinal tract [cf. P. Artursson and J. Karlsson: Correlation between oral drug absorption in humans and apparent drug permeability coefficients in human intestinal epithelial (Caco-2) cells, Biochem. Biophys. 175 (3), 880-885 (1991)]. The permeability of the compounds of the present invention in such Caco-2 cells was determined as described below:
Human caco-2 cells (ACC No. 169, DSMZ, German Collection of Microorganisms and Cell Cultures, Braunschweig, Germany) are seeded on 24-well insert plates and are allowed to grow for 14-16 days. For permeability studies, the test compounds are dissolved in DMSO and diluted to the final test concentration of 2 μM with transport buffer [Hanks' Buffered Salt Solution, Gibco/Invitrogen, further supplemented with glucose (final concentration 19.9 mM) and HEPES (final concentration 9.8 mM)]. For determination of the apical to basolateral permeability (PappA-B), the test compound solution is added to the apical side of the cell monolayer and transport buffer to the basolateral side of the monolayer; for determination of the basolateral to apical permeability (PappB-A), the test compound solution is added to the basolateral side of the cell monolayer and transport buffer to the apical side of the monolayer. Samples are taken from the donor compartment at the beginning of the experiment to confirm mass balance. After an incubation of 2 h at 37° C., samples are taken from both compartments. Samples are analyzed by LC-MS/MS, and the apparent permeability coefficients are calculated. Lucifer Yellow permeability is assayed for each cell monolayer to ensure cell monolayer integrity, and the permeability of Atenolol (low permeability marker) and Sulfasalazine (marker for active excretion) is determined for each batch as quality control.
In general terms: Caco-2 cells form a polarised layer with tight junctions and transporters.

Broadly, the IC50 is the concentration at which inhibition is half-maximal.

Chain of Recombinant human c-Met protein (P08581 25-1390): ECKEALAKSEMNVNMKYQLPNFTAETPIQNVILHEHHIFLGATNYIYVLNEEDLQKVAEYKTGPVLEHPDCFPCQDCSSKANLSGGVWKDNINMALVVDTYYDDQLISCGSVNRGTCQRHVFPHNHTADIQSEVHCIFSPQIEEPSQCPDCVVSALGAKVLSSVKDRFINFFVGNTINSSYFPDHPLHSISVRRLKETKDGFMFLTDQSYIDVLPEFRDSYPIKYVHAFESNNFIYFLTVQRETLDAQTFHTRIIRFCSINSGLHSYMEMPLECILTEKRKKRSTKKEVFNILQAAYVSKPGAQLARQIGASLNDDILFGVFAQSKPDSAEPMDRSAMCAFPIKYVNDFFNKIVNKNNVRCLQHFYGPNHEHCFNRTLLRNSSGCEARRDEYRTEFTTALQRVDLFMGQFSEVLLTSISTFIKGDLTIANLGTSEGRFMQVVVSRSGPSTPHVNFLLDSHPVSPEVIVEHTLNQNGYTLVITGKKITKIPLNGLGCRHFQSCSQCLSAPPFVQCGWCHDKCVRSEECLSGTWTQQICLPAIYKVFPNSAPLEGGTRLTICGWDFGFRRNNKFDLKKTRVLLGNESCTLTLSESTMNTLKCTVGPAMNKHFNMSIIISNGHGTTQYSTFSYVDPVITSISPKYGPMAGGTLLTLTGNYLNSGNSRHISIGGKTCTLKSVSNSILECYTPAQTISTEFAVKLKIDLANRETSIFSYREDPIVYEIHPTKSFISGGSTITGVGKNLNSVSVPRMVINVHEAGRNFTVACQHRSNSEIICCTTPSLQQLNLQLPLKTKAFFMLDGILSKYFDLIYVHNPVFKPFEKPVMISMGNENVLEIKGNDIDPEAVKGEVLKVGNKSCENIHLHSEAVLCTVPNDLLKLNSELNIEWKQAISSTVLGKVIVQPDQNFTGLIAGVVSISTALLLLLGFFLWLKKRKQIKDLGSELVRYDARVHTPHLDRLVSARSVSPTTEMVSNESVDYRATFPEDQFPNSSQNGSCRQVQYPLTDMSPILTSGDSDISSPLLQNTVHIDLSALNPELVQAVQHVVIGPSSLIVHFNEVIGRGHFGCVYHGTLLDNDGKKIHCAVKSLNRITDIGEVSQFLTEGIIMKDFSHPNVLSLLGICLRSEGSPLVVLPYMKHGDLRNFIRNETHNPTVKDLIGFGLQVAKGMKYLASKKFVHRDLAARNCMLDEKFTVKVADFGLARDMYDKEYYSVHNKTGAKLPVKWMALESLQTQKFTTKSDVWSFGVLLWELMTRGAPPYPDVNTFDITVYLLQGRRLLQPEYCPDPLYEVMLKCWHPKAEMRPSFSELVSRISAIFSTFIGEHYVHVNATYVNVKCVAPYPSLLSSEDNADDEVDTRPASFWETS
Chain of recombinant kinase domain of the human c-Met (amino acids 960-1390) (P08581 960-1390): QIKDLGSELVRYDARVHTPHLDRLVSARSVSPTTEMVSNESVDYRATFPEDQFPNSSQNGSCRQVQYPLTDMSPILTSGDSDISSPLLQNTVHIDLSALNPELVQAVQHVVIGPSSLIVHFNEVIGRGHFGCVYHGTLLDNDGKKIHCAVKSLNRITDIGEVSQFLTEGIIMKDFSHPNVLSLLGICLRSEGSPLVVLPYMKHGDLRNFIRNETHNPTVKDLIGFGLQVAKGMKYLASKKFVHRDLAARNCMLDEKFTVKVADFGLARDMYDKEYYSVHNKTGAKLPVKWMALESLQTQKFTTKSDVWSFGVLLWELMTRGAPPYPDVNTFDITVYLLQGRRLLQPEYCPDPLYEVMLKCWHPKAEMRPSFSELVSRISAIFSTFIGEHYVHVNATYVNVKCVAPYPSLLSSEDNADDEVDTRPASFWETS

Turning to `CC1=C(C#N)C(c2ccc3[nH]nc(C)c3c2)C(C#N)=C(C(F)F)N1` (single isomer, unassigned) [Example 2, 2-(Difluoromethyl)-6-methyl-4-(3-methyl-1H-indazol-5-yl)-1,4-dihydropyridine-3,5-dicarbonitrile], the IC50 in data set [1] is 6 nM; in data set [2], 2 nM.

For the compound `CC1=C(C#N)C(c2cc3c(C)n[nH]c3cc2F)C(C#N)=C(C(F)F)N1` (single isomer, unassigned) [Example 8, 2-(Difluoromethyl)-4-(6-fluoro-3-methyl-1H-indazol-5-yl)-6-methyl-1,4-dihydropyridine-3,5-dicarbonitrile], the IC50 in data set [1] is 9 nM.

As to `CC1=C(C#N)C(c2ccc3[nH]ncc3c2)C(C#N)=C(C(F)(F)F)N1` (racemic) [Example 20, rac-4-(1H-Indazol-5-yl)-2-methyl-6-(trifluoromethyl)-1,4-dihydropyridine-3,5-dicarbonitrile], in data set [1], the IC50 came to 27 nM. Also, the Papp at 2 h, 2 μM in data set [3] is 20 ×10⁻⁶ cm/s.

As for `CC1=C(C#N)C(c2ccc3[nH]nc(C)c3c2)C(C#N)=C(C(F)(F)F)N1C` (single isomer, unassigned) [Example 43, 1,2-Dimethyl-4-(3-methyl-1H-indazol-5-yl)-6-(trifluoromethyl)-1,4-dihydropyridine-3,5-dicarbonitrile], the IC50 in data set [1] came to 9 nM.

On to `CCC(F)(F)C1=C(C#N)C(c2ccc3[nH]nc(C)c3c2)C(C#N)=C(C)N1` (racemic) [Example 30, rac-2-(1,1-Difluoropropyl)-6-methyl-4-(3-methyl-1H-indazol-5-yl)-1,4-dihydropyridine-3,5-dicarbonitrile], for which the values for the IC50 in data set [1] and in data set [2] were 21 nM and 3 nM, respectively. Besides, the Papp at 2 h, 2 μM in data set [3] was determined as 22 ×10⁻⁶ cm/s.

`N#CC1=C(C(F)F)NC(C(F)F)=C(C#N)C1c1ccc2[nH]ncc2c1` [Example 24, 2,6-Bis(difluoromethyl)-4-(1H-indazol-5-yl)-1,4-dihydropyridine-3,5-dicarbonitrile]: the concentration for half-maximal inhibition (IC50) in data set [1] was found to be 28 nM. In addition, the Papp at 2 h, 2 μM in data set [3] was determined as 20.2 ×10⁻⁶ cm/s.

For the compound `CC1=C(C#N)C(c2ccc3[nH]nc(C)c3c2)C(C#N)=C(C(F)(F)F)N1` (single isomer, unassigned) [Example 5], the IC50 in data set [1] turned out to be 12 nM.

As for `CC1=C(C#N)C(c2ccc3[nH]nc(C)c3c2)C(C#N)=C(C(F)(F)F)N1C` (single isomer, unassigned) [Example 44, 1,2-Dimethyl-4-(3-methyl-1H-indazol-5-yl)-6-(trifluoromethyl)-1,4-dihydropyridine-3,5-dicarbonitrile], in data set [1], the IC50 stood at 8 nM.

For `CC1=C(C#N)C(c2cc3cn[nH]c3cc2F)C(C#N)=C(C(F)F)N1` (single isomer, unassigned) [Example 17, 2-(Difluoromethyl)-4-(6-fluoro-1H-indazol-5-yl)-6-methyl-1,4-dihydropyridine-3,5-dicarbonitrile], the IC50 in data set [1] was found to be 11 nM.

Values taken from patent publication US9422263B2, “Fluoro-substituted 3,5-dicyano-4-(1H-indazol-5-yl)-2,6-dimethyl-1,4-dihydropyridine derivatives and methods of use thereof” (BAYER PHARMA AKTIENGESELLSCHAFT, priority 2009, dated 2016).
